Results reported in patent US9402878B2, “Depsipeptide and uses thereof” (priority 2012, dated 2016).
Values after ≈ are worked out from the molar mass of the structure shown. Like-named read-outs stand apart in the source and are kept apart here.

Tests used:
[1] = test system: Streptococcus pneumoniae ATCC 6301 (UNT012-2); assay: Immunocompetent mouse pneumonia model; type: in vivo
Experimental: The compound of Formula (II) was then evaluated against Streptococcus pneumoniae in an immunocompetent mouse pneumonia model to determine the compound's potential to treat acute respiratory infections. Briefly, CD-1 mice were infected intranasally with Streptococcus pneumoniae ATCC 6301 (UNT012-2) (1.5×10^6 CFU/mouse). The compound was delivered intravenously at 24 and 36 hours post-infection, and at doses ranging from 0.5 to 10 mg/kg/dose. At 48 hours post infection, treated mice were euthanized, lungs aseptically removed and processed for CFU titers

Enterococcus faecalis = assay: MIC against contemporary clinical isolates; details: for % S (CLSI % susceptible) / MIC Range: n = 10, 50% VRE
[2] = test system: Staphylococcus aureus MSSA; assay: MIC against contemporary clinical isolates; details: for % S (CLSI % susceptible) / MIC Range: MSSA (n = 20); for MIC50 / MIC90: Staphylococcus aureus, MSSA
[3] = test system: Staphylococcus aureus MRSA; assay: MIC against contemporary clinical isolates; details: for % S (CLSI % susceptible) / MIC Range: MRSA (n = 20); for MIC50 / MIC90: Staphylococcus aureus, MRSA
Enterococcus faecium = assay: MIC against contemporary clinical isolates; details: for % S (CLSI % susceptible) / MIC Range: n = 10, 50% VRE
Streptococcus agalactiae = assay: MIC against contemporary clinical isolates; details: for MIC50 / MIC90: Streptococcus agalactiae; for % S (CLSI % susceptible) / MIC Range: n = 10
[4] = test system: Staphylococcus aureus Daptomycin^NS; assay: MIC against contemporary clinical isolates; details: Daptomycin^NS (n = 5)
Streptococcus pyogenes = assay: MIC against contemporary clinical isolates; details: for MIC50 / MIC90: Streptococcus pyogenes; for % S (CLSI % susceptible) / MIC Range: n = 10
[5] = test system: Viridans Group Streptococci; assay: MIC against contemporary clinical isolates; details: n = 5
[6] = test system: Staphylococcus aureus Linezolid^R; assay: MIC against contemporary clinical isolates; details: Linezolid^R (n = 5)
Streptococcus pneumoniae = assay: MIC against contemporary clinical isolates; details: for MIC50 / MIC90: Streptococcus pneumoniae, PRSP; for % S (CLSI % susceptible) / MIC Range: n = 20, 28.6% PSSP, 33.3% PISP, 38.1% PRSP
[7] = test system: Staphylococcus epidermidis; assay: MIC against contemporary clinical isolates; details: for MIC50 / MIC90: Staphylococcus epidermidis; for % S (CLSI % susceptible) / MIC Range: n = 20
[8] = test system: Staphylococcus aureus VISA; assay: MIC against contemporary clinical isolates; details: for MIC50 / MIC90: Staphylococcus aureus, VISA; for % S (CLSI % susceptible) / MIC Range: VISA (n = 10)
CYP2D6 = CYP2D6 (Homo sapiens (Human), UniProt P10635); assay: in vitro; details: liver microsomes, pH 7.4
[9] = test system: S. aureus MRSA ATCC 33591; assay: Mouse septicemia protection assay; type: in vivo; details: CD-1 female mice, IV, QD single dose one hour post infection, survival after 48 hrs
Experimental: CD-1 female mice were infected with 0.5 mL of bacterial suspension (3.28×10^7 CFU/mouse) via intraperitoneal injection, a concentration that achieves at least 90% mortality within 48 hours after infection. At one hour post infection, mice were treated with the compound intravenously with single doses and the results are shown in Table 12.

Bacillus anthracis = type: cell-based

CYP2D6, sequence (P10635 whole entry, looked up): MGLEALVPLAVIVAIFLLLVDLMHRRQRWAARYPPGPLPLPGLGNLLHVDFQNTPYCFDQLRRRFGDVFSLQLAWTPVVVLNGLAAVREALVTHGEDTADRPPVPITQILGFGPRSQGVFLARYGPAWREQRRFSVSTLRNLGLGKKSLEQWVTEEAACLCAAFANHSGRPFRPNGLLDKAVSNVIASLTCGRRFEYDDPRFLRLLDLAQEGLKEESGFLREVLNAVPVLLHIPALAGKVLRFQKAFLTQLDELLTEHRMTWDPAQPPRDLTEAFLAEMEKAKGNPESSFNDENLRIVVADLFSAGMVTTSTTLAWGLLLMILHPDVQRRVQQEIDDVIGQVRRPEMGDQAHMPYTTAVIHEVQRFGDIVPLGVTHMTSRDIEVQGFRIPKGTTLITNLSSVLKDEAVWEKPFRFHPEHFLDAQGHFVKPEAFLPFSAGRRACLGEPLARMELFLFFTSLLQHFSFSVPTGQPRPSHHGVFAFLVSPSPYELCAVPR

## CC1(C)S[C@@H]2[C@H](NC(=O)[C@H](N)c3ccc(O)cc3)C(=O)N2[C@H]1C(=O)O [Amoxicillin]
[1]; 10 mg/kg/dose
  Log10 change from 24 hrs: −3.98 Log10
  Log10 change from 48 hrs: −5.83 Log10
[1]; 10 mg/kg/dose IV at 24 and 36 hours post-infection, lungs at 48 hours
  Mean Log10 CFU: 2.78 Log10 CFU

## CC(=O)NC[C@H]1CN(c2ccc(N3CCOCC3)c(F)c2)C(=O)O1 [Linezolid]
Enterococcus faecalis
  MIC50: 2 µg/mL (≈ 5.93 µM)
  MIC90: 2 µg/mL (≈ 5.93 µM)
  % S (CLSI % susceptible): 100.0%
  MIC Range: 1 to 2 µg/mL
[2]
  % S (CLSI % susceptible): 100.0%
  MIC Range: 2 to 4 µg/mL
  MIC50: 2 µg/mL (≈ 5.93 µM)
  MIC90: 4 µg/mL (≈ 11.9 µM)
[3]
  % S (CLSI % susceptible): 100.0%
  MIC Range: 2 to 4 µg/mL
  MIC50: 2 µg/mL (≈ 5.93 µM)
  MIC90: 4 µg/mL (≈ 11.9 µM)
Enterococcus faecium
  MIC50: 2 µg/mL (≈ 5.93 µM)
  MIC90: 2 µg/mL (≈ 5.93 µM)
  % S (CLSI % susceptible): 100.0%
  MIC Range: 1 to 2 µg/mL
Streptococcus agalactiae
  MIC50: 1 µg/mL (≈ 2.96 µM)
  MIC90: 1 µg/mL (≈ 2.96 µM)
  % S (CLSI % susceptible): 100.0%
  MIC Range: 0.5-2^ μg/mL
[4]
  % S (CLSI % susceptible): 80.0%
  MIC Range: 1 to 32 µg/mL
Streptococcus pyogenes
  MIC50: 1 µg/mL (≈ 2.96 µM)
  MIC90: 1 µg/mL (≈ 2.96 µM)
  % S (CLSI % susceptible): 100.0%
  MIC Range: 0.5-1^ μg/mL
[5]
  % S (CLSI % susceptible): 100.0%
  MIC Range: 0.5-1^ μg/mL
[6]
  % S (CLSI % susceptible): 0.0%
Streptococcus pneumoniae
  MIC50: 1 µg/mL (≈ 2.96 µM)
  MIC90: 1 µg/mL (≈ 2.96 µM)
  % S (CLSI % susceptible): 100.0%
  MIC Range: 0.25 to 1 µg/mL
[7]
  MIC50: 2 µg/mL (≈ 5.93 µM)
  MIC90: 2 µg/mL (≈ 5.93 µM)
  % S (CLSI % susceptible): 100.0%
  MIC Range: 1 to 4 µg/mL
[8]
  MIC50: 2 µg/mL (≈ 5.93 µM)
  MIC90: 2 µg/mL (≈ 5.93 µM)
  % S (CLSI % susceptible): 100.0%
  MIC Range: 1 to 4 µg/mL

## CCCCCCCCCC(=O)N[C@@H](Cc1c[nH]c2ccccc12)C(=O)N[C@H](CC(N)=O)C(=O)N[C@@H](CC(=O)O)C(=O)N[C@@H]1C(=O)NCC(=O)N[C@@H](CCCN)C(=O)N[C@@H](CC(=O)O)C(=O)N[C@H](C)C(=O)N[C@@H](CC(=O)O)C(=O)NCC(=O)N[C@H](CO)C(=O)N[C@@H]([C@H](C)CC(=O)O)C(=O)N[C@@H](CC(=O)c2ccccc2N)C(=O)O[C@@H]1C [Daptomycin]
Enterococcus faecalis
  MIC50: 0.25 µg/mL (≈ 0.154 µM)
  MIC90: 0.5 µg/mL (≈ 0.309 µM)
  % S (CLSI % susceptible): 90.0%
  MIC Range: 0.12 to 8 µg/mL
[2]
  % S (CLSI % susceptible): 100.0%
  MIC Range: 0.12 to 0.25 µg/mL
  MIC50: 0.25 µg/mL (≈ 0.154 µM)
  MIC90: 0.25 µg/mL (≈ 0.154 µM)
[3]
  % S (CLSI % susceptible): 100.0%
  MIC Range: 0.12 to 0.25 µg/mL
  MIC50: 0.25 µg/mL (≈ 0.154 µM)
  MIC90: 0.25 µg/mL (≈ 0.154 µM)
Enterococcus faecium
  MIC50: 0.5 µg/mL (≈ 0.309 µM)
  MIC90: 1 µg/mL (≈ 0.617 µM)
  % S (CLSI % susceptible): 100.0%
  MIC Range: 0.5-1^ μg/mL
Streptococcus agalactiae
  MIC50: 0.12 µg/mL (≈ 0.074 µM)
  MIC90: 0.12 µg/mL (≈ 0.074 µM)
  % S (CLSI % susceptible): 100.0%
  MIC Range: 0.06 to 0.25 µg/mL
[4]
  % S (CLSI % susceptible): 0.0%
  MIC Range: 2 to 8 µg/mL
Streptococcus pyogenes
  MIC50: ≤ 0.03 µg/mL
  MIC90: 0.06 µg/mL (≈ 0.037 µM)
  % S (CLSI % susceptible): 100.0%
  MIC Range: ≦0.03-0.06^ μg/mL
[5]
  % S (CLSI % susceptible): 100.0%
  MIC Range: 0.06 to 0.25 µg/mL
[6]
  % S (CLSI % susceptible): 100.0%
  MIC Range: 0.25 to 0.5 µg/mL
Streptococcus pneumoniae
  MIC50: ≤ 0.03 µg/mL
  MIC90: ≤ 0.03 µg/mL
  MIC Range: ≦0.03-0.06^ μg/mL
[7]
  MIC50: 0.12 µg/mL (≈ 0.074 µM)
  MIC90: 0.25 µg/mL (≈ 0.154 µM)
  % S (CLSI % susceptible): 100.0%
  MIC Range: 0.06 to 0.25 µg/mL
[8]
  MIC50: 0.5 µg/mL (≈ 0.309 µM)
  MIC90: 1 µg/mL (≈ 0.617 µM)
  % S (CLSI % susceptible): 100.0%
  MIC Range: 0.25 to 1 µg/mL

## C=C[C@H]1C[N@@]2CC[C@H]1C[C@@H]2[C@@H](O)c1ccnc2ccc(OC)cc12 [Quinidine]
CYP2D6
  inhibition at 10 min, 0.1 µM: 60.6%
  inhibition at 10 min, 1 µM: 91.7%

## CN[C@H](CC(C)C)C(=O)N[C@H]1C(=O)N[C@@H](CC(N)=O)C(=O)N[C@H]2C(=O)N[C@H]3C(=O)N[C@H](C(=O)N[C@H](C(=O)O)c4cc(O)cc(O)c4-c4cc3ccc4O)[C@H](O)c3ccc(c(Cl)c3)Oc3cc2cc(c3O[C@@H]2O[C@H](CO)[C@@H](O)[C@H](O)[C@H]2O[C@H]2C[C@](C)(N)[C@H](O)[C@H](C)O2)Oc2ccc(cc2Cl)[C@H]1O [Vancomycin]
Enterococcus faecalis
  MIC50: 1 µg/mL (≈ 0.69 µM)
  MIC90: > 32 µg/mL
  % S (CLSI % susceptible): 50.0%
[9]
  PD50: ~2.75 mg/kg
[9]; listed as vancomycin
  PD50: ~2.75 mg/kg
[2]
  % S (CLSI % susceptible): 100.0%
  MIC Range: 0.5-1^ μg/mL
  MIC50: 0.5 µg/mL (≈ 0.345 µM)
  MIC90: 1 µg/mL (≈ 0.69 µM)
[3]
  % S (CLSI % susceptible): 100.0%
  MIC Range: 0.5-2^ μg/mL
  MIC50: 0.5 µg/mL (≈ 0.345 µM)
  MIC90: 1 µg/mL (≈ 0.69 µM)
Enterococcus faecium
  MIC50: 0.5 µg/mL (≈ 0.345 µM)
  MIC90: > 32 µg/mL
  % S (CLSI % susceptible): 50.0%
Streptococcus agalactiae
  MIC50: 0.5 µg/mL (≈ 0.345 µM)
  MIC90: 0.5 µg/mL (≈ 0.345 µM)
  % S (CLSI % susceptible): 100.0%
  MIC Range: 0.25 to 0.5 µg/mL
[4]
  % S (CLSI % susceptible): 40.0%
  MIC Range: 0.5-8^ μg/mL
Streptococcus pyogenes
  MIC50: 0.25 µg/mL (≈ 0.173 µM)
  MIC90: 0.25 µg/mL (≈ 0.173 µM)
  % S (CLSI % susceptible): 100.0%
  MIC Range: 0.25 µg/mL (≈ 0.173 µM)
[5]
  % S (CLSI % susceptible): 100.0%
  MIC Range: 0.25 to 0.5 µg/mL
[6]
  % S (CLSI % susceptible): 100.0%
  MIC Range: 1 µg/mL (≈ 0.69 µM)
Streptococcus pneumoniae
  MIC50: 0.25 µg/mL (≈ 0.173 µM)
  MIC90: 0.25 µg/mL (≈ 0.173 µM)
  % S (CLSI % susceptible): 100.0%
  MIC Range: 0.12 to 0.5 µg/mL
[7]
  MIC50: 2 µg/mL (≈ 1.38 µM)
  MIC90: 2 µg/mL (≈ 1.38 µM)
  % S (CLSI % susceptible): 100.0%
  MIC Range: 1 to 2 µg/mL
[8]
  MIC50: 4 µg/mL (≈ 2.76 µM)
  MIC90: 8 µg/mL (≈ 5.52 µM)
  % S (CLSI % susceptible): 10.0%
  MIC Range: 1 to 8 µg/mL

## C[C@H]1c2cccc(O)c2C(=O)C2=C(O)[C@]3(O)C(=O)C(C(N)=O)=C(O)[C@@H](N(C)C)[C@@H]3[C@@H](O)[C@@H]21 [Doxycycline]
Bacillus anthracis; B. anthracis NR-36
  MIC: 0.06 µg/mL (≈ 0.135 µM)
Bacillus anthracis; B. anthracis NR-38
  MIC: 0.125 µg/mL (≈ 0.281 µM)
Bacillus anthracis; B. anthracis NR-41
  MIC: 0.06 µg/mL (≈ 0.135 µM)
Bacillus anthracis; B. anthracis NR-46
  MIC: 0.125 µg/mL (≈ 0.281 µM)
Bacillus anthracis; B. anthracis NR-411
  MIC: 0.125 µg/mL (≈ 0.281 µM)
Bacillus anthracis; B. anthracis NR-412
  MIC: 0.03 µg/mL (≈ 0.0675 µM)
Bacillus anthracis; B. anthracis NR-413
  MIC: 0.06 µg/mL (≈ 0.135 µM)
Bacillus anthracis; B. anthracis NR-414
  MIC: 0.125 µg/mL (≈ 0.281 µM)
Bacillus anthracis; B. anthracis NR-415
  MIC: 0.06 µg/mL (≈ 0.135 µM)
Bacillus anthracis; B. anthracis NR-3838
  MIC: 0.06 µg/mL (≈ 0.135 µM)
